Data from PMC10649913 (Journal for Immunotherapy of Cancer, 2023).

How the values were obtained:
[1] = cited from earlier work
[2] = test system: human T cells cocultured with moDCs; assay: Human mixed lymphocyte reaction; assay type: cell-based; settings: LPS and IFN-γ-matured moDCs, 3 days, 1 nM–1 µM
[3] = test system: coculture of H1299 NSCLC cells, primary human PBMCs, and primary human fibroblasts; assay: BioMAP Oncology Panel; assay type: cell-based; settings: 0.37, 1.1, or 3.3 µM, 48 hours
AhR = settings: cited from earlier work

Compound: Cc1ccccc1N=Nc1ccc(NC(=O)c2ccnn2C)c(C)c1 [CH-223191]
- AhR-independent activities [1]: AhR-independent proproliferative activities

Compound: NS(=O)(=O)NCCNc1nonc1C(=NO)Nc1ccc(F)c(Br)c1 [epacadostat]
- IL-2 production from T cells (MLR) [2]: no effect
- Cytokine production (IFN-γ, IL-17, IL-2, IL-6, TNF-α) [3]: predominantly anti-inflammatory responses with decreases in IFN-γ, IL-2, IL-6, and IL-17

Compound: CC(C)n1cnc2c(NCCc3ccc(O)cc3)nc(-c3csc4ccccc34)nc21 [SR1]
- Mouse cross-reactivity (AhR): not mouse cross-reactive
